Data as given in US20190031618A1, “BENZIMIDAZOLE DERIVATIVES USEFUL AS CB-1 INVERSE AGONISTS” (Janssen Pharmaceutica NV, priority 2015, published 2019).

Biological target: Human CB2R (Cannabinoid receptor 2) (Homo sapiens, UniProt P34972)
Test: CB-2 in vitro cAMP (HTRF) assay
Format: cell-based
Conditions: HEK cells, cAMP HTRF, 250 nM forskolin; mean where tested more than once; read-out: CB2 HEK_cAMP EC50
Method in brief: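 HEK-293 cells stably expressing receptor, plated overnight at 4E5 cells/mL, tested with 1/3 serial dilutions of compound in HBSS/HEPES/BSA buffer with 0.5 mM IBMX and forskolin (diluted to 1.5 μM in buffer). cAMP measured by competitive HTRF immunoassay (d2-cAMP, cryptate anti-cAMP), signal inversely proportional to cAMP.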

Sequence of Human CB2R (Cannabinoid receptor 2) (P34972 whole entry): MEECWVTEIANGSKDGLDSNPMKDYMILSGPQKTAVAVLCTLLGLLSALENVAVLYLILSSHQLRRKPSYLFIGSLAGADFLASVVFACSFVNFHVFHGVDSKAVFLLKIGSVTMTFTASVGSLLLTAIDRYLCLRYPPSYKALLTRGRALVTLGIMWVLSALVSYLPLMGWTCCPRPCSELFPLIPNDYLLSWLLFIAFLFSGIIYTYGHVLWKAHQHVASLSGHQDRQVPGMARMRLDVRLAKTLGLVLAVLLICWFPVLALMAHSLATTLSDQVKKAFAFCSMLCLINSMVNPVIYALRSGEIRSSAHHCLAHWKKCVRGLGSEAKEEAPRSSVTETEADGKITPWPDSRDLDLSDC

Row | SMILES | EC50 [µM]
1 | O=S(=O)(c1cccc(O)c1)N1CCC(n2c(C3CC3)nc3ccc(C(c4ccc(Cl)cc4)c4ccc(Cl)cc4)cc32)CC1 [Example 259] | > 10
2 | O=C(O)c1csc(S(=O)(=O)N2CCC(n3c(C4CC4)nc4ccc(C(c5ccc(Cl)cc5)c5ccc(Cl)cc5)cc43)CC2)c1 [Example 221] | 3.3
3 | O=C(O)c1cccc(CN2CCC(n3c(C4CC4)nc4ccc(C(c5ccc(Cl)cc5)c5ccc(Cl)cc5)cc43)CC2)c1 [Example 148] | 4.93
4 | O=S(=O)(N1CCC(Cn2c(C3CC3)nc3ccc(C(c4ccc(Cl)cc4)c4ccc(Cl)cc4)cc32)CC1)C(F)(F)F [Example 316] | 3.86
5 | O=C(O)c1ccc(S(=O)(=O)N2CCC(n3c(C4CC4)nc4ccc(C(c5ccc(Cl)cc5)c5ccc(Cl)cc5)cc43)CC2)o1 [Example 232] | 8.86
6 | O=C(O)c1cc(F)cc(CN2CCC(n3c(C4CC4)nc4ccc(C(c5ccc(Cl)cc5)c5ccc(Cl)cc5)cc43)CC2)c1 [Example 89] | 7.9
7 | O=S(=O)(N1CCC(n2c(C3CC3)nc3ccc(C(c4ccc(Cl)cc4)c4ccc(Cl)cc4)cc32)CC1)C(F)(F)F [Example 335] | > 10
8 | CCc1nc2ccc(C(c3ccc(Cl)cc3)c3ccc(Cl)cc3)cc2n1C1CCN(S(=O)(=O)C(F)(F)F)CC1 [Example 328] | > 14
9 | O=C(O)c1ccc(F)c(CN2CCC(n3c(C4CC4)nc4ccc(C(c5ccc(Cl)cc5)c5ccc(Cl)cc5)cc43)CC2)c1 [Example 92] | 5.19
10 | O=C(O)c1cccc(CN2CCC(n3c(C4CC4)nc4ccc(C(c5ccc(Cl)cc5)c5ccc(Cl)cc5)cc43)CC2)n1 [Example 125] | 9.9
11 | O=C(O)c1ccc(CN2CCC(n3c(C4CC4)nc4ccc(C(c5ccc(Cl)cc5)c5ccc(Cl)cc5)cc43)CC2)o1 [Example 129] | > 10
12 | CCc1nc2ccc(C(c3ccc(Cl)cc3)c3nccs3)cc2n1C1CCN(S(=O)(=O)C(F)(F)F)CC1 (stereo not drawn) [Example 400] | > 10
13 | COc1ccc(C(c2ccc(OC)cc2)c2ccc3nc(C4CCC4)n(C4CCN(S(=O)(=O)C(F)(F)F)CC4)c3c2)cc1 [Example 320] | > 10
14 | O=C(O)c1ccc(CN2CCC(n3c(C4CC4)nc4ccc(C(c5ccc(Cl)cc5)c5ccc(Cl)cc5)cc43)CC2)nc1 [Example 124] | > 10
15 | CCc1nc2ccc(C(c3ccc(Cl)cc3)c3ccc(Cl)cc3)cc2n1CC1CCN(S(=O)(=O)C(F)(F)F)CC1 [Example 315] | 5.4
16 | O=S(=O)(N1CCC(n2c(C3CCC3)nc3ccc(C(c4ccc(Cl)cc4)c4ccc(Cl)cc4)cc32)CC1)C(F)(F)F [Example 318] | > 10
17 | O=C(O)c1ccc(S(=O)(=O)N2CCC(n3c(C4CC4)nc4ccc(C(c5ccc(Cl)cc5)c5ccc(Cl)cc5)cc43)CC2)cc1 [Example 276] | 2.61
18 | O=C(O)c1cccc(S(=O)(=O)N2CCC(n3c(C4CC4)nc4ccc(C(c5ccc(Cl)cc5)c5ccc(Cl)cc5)cc43)CC2)c1 [Example 242] | 5.69
